The record followed here is US20250368678A1, “19-NOR-C3,3-DISUBSTITUTED C21-AZACYCLO-S[…] AND METHOD FOR USING SAME” (SHANDONG LUYE PHARMACEUTICAL CO., LTD., priority 2022, published 2025).

In one data set the target is T1, α1β2γ2 GABA receptors (α1β2γ2-CHO-TRex stable cell strain) (Homo sapiens, UniProt P14867+P47870).
T1 construct: expressed in transfected cells
T1 sequence (P14867 28-456): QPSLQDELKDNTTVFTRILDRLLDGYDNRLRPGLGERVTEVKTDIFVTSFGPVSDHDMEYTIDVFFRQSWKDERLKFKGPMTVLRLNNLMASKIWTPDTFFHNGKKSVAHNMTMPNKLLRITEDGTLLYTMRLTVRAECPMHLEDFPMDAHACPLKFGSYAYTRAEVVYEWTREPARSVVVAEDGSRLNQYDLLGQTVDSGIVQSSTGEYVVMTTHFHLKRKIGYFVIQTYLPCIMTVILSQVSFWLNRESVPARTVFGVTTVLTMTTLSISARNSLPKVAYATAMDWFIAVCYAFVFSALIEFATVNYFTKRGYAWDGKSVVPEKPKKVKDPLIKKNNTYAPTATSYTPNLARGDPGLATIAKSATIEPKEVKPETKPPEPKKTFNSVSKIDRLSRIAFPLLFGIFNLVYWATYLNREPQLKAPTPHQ
T1 sequence (P47870 25-512 limits assumed): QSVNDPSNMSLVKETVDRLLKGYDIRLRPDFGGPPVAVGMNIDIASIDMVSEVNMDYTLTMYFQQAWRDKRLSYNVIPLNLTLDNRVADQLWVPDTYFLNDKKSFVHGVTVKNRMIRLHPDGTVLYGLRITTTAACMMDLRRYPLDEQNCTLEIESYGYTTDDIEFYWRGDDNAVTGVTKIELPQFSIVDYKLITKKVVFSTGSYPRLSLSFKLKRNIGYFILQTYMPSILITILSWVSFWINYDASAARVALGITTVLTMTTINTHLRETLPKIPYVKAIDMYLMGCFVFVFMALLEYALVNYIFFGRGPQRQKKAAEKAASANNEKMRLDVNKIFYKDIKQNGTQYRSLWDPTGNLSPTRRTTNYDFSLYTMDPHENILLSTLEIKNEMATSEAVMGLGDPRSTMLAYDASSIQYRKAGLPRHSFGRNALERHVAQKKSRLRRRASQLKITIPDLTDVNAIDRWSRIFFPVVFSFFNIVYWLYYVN
T1 sequence (P18507 40-475 partner): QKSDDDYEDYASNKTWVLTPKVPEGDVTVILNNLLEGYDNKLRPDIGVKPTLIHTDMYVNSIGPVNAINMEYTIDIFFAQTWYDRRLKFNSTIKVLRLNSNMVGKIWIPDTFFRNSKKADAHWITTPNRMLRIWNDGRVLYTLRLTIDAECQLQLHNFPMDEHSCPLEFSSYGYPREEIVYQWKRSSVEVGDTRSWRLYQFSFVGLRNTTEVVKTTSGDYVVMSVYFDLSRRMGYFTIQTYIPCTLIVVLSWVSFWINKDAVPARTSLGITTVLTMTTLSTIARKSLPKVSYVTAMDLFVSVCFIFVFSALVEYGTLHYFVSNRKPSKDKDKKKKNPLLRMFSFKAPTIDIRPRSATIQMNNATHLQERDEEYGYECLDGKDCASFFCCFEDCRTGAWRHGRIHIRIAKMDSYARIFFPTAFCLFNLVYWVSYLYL
Briefly: Whole-cell patch clamp, intrasynaptic functional activity (positive allosteric regulation of GABA-induced current). The data set is classed as cell-based. The following applies: patch clamp -60 mV, GABA at EC10-20, α1β2γ2-CHO-TRex cells. The method, then:
(§1) The α4β3δ-HEK-FlpIn-TRex stable cell strain was cultured in DMEM+10% FBS complete culture medium, with the selective antibiotics being 10 μg/mL Blasticidin, 100 µg/mL Zeocin, 100 µg/mL Hygromycin, and 0.2 μg/mL Puromycin. The α1β2γ2-CHO-TRex stable cell strain was cultured in DMEM/F12+10% FBS complete culture medium, with the selective antibiotics being 10 μg/mL Blasticidin, 100 μg/mL Zeocin, 300 μg/mL Hygromycin, and […] Puromycin.
(§2) The day before the patch clamp experiment, cells were seeded onto 12 mm polylysine-coated coverslips and then cultured in 35 mm culture dishes, and tetracycline ([…]) was added to induce the expression of GABA receptors. The extracellular fluid had the following composition (in mM): 140 NaCl, 3 KCl, 1.5 MgCl2, 2 CaCl2, 10 HEPES, and 10 Glucose. After thorough mixing, NaOH was added to adjust the pH to 7.4, and sucrose was added to adjust the osmotic pressure to 300-320 mOsm. The fluid was stored at 4° C. The electrode internal solution had the following composition (in mM): 145 KCl, 1 MgCl2, 5 EGTA, 10 HEPES, and 5 MgATP. After thorough mixing, KOH was added to adjust the pH to 7.3, and sucrose was added to adjust the osmotic pressure to 290-300 mOsm. The solution was filtered through a […] before use.
(§3) Whole-cell patch clamp recording was mainly employed in this experiment. The membrane potential was clamped at −60 mV, and receptors were activated using GABA at an EC10-20 concentration ([…]). The test compounds were dissolved in 0.1% DMSO, and perfusion was performed for 30 s prior to GABA stimulation. Finally, the positive allosteric regulating effects of the test compounds on α1β2γ2 or α4β3δ were determined.
(§4) The experimental result for each concentration was expressed as a fold increase in the GABA-induced current caused by the compound. […] At least 5 concentrations are tested to obtain a complete EC50 curve and EC50 values. All experiments were repeated on no less than 3 cells, and data processing was completed using GraphPad prism software. The dose-response curves were fitted using the Hill equation, and the half-maximal activating concentration EC50 and Emax were finally obtained.
What is called EC50 is the concentration needed to bring the measured effect to its halfway point. High values mean weaker potency, low ones greater potency. For orientation: Emax means the maximal effect, on the per cent scale that the assay sets. The molecule `C[C@@]1(O)CC[C@H]2[C@H](CC[C@@H]3[C@@H]2CC[C@]2(C)[C@@H](C(=O)Cn4ncn(-c5ccc(F)cc5)c4=O)CC[C@@H]32)C1` [Compound 9] showed a half-maximal effective concentration (EC50) of 12.4 nM and an Emax of 294%.

`C[C@@]1(O)CC[C@H]2[C@H](CC[C@@H]3[C@@H]2CC[C@]2(C)[C@@H](C(=O)Cn4c(=O)n(-c5ccccc5)c5ccccc54)CC[C@@H]32)C1` [Compound 13] gave a maximum response (Emax) of 305%.

In turn, `C[C@@]1(O)CC[C@H]2[C@H](CC[C@@H]3[C@@H]2CC[C@]2(C)[C@@H](C(=O)Cn4cnn(-c5cc(F)ccn5)c4=O)CC[C@@H]32)C1` [Compound 35] registered an EC50 of 340 nM and an Emax of 446%.

On to `C[C@@]1(O)CC[C@H]2[C@H](CC[C@@H]3[C@@H]2CC[C@]2(C)[C@@H](C(=O)Cn4cnn(-c5ccnc(C(F)F)c5)c4=O)CC[C@@H]32)C1` [Compound 37], for which the maximal response (Emax) worked out at 600%.

`Cc1cc(-n2ncn(CC(=O)[C@H]3CC[C@H]4[C@@H]5CC[C@@H]6C[C@](C)(O)CC[C@@H]6[C@H]5CC[C@]34C)c2=O)cc(C)n1` [Compound 40] displayed a maximum response (Emax) of 691%.

`C[C@@]1(O)CC[C@@]2(C)[C@@H](CC[C@@H]3[C@@H]2CC[C@]2(C)[C@@H](C(=O)Cn4cnn(-c5ccnc(F)c5)c4=O)CC[C@@H]32)C1` [Compound 42] displayed an EC50 of 280 nM and an Emax of 736%.

System in another data set: not listed separately
The data set can be described thus: In vitro liver microsomal stability assay, human. The data set is classed as in vitro ADME. Particulars: Human liver microsomes. On the procedure: (§5) 1) Preparation of working solutions of test samples: The test samples were diluted with acetonitrile to 100 M.
(§6) 2) Preparation of a working solution of liver microsomes: liver microsomes were diluted with 100 mM phosphate-buffered saline to 0.56 mg/mL.
(§7) 3) Preparation of a working solution of reduced nicotinamide adenine dinucleotide (NADPH): A proper amount of NADPH was weighed out and diluted with phosphate-buffered saline to 20 mM, and an equal volume of a 60 mM MgCl2 solution was added.
(§8) 4) Preparation of a stop solution: Tolbutamide was diluted with acetonitrile to 20 ng/mL, serving as a stop solution containing an internal standard.
(§9) 1) Incubation anti-adsorption EP tubes were prepared and labeled with species, test/control sample, time points (0, 5, 10, 20, 30, 60 min, Blank60, and NCF60), etc.
(§10) 2) 2 L of test or control sample working solution, diluted with acetonitrile to 100 M, and 178 L of liver microsome working solution were added to each tube. For the Blank60 tube, 2 L of acetonitrile was added instead of a test sample. The tubes were pre-incubated in a 37° C. water bath for about 10 min, with each sample tested in triplicate.
(§11) 3) After the pre-incubation was complete, 20 L of NADPH working solution was added to each tube except for the 0 min and NCF60 tubes to start reactions, and 20 L of phosphate-buffered saline (containing 30 mM MgCl2) was added to the NCF60 tube. In the incubation system, the final concentrations of the test and control samples were 1 M, the final concentration of liver microsomes was 0.5 mg/mL, the final concentration of NADPH was 1 mM, and the final concentration of MgCl2 was 3 mM.
(§12) 4) For the 0 min sample, 600 L of stop solution was added before adding the NADPH working solution. After each sample was incubated for its respective time, 600 L of stop solution was added to stop the reaction.
(§13) 5) After the reaction was stopped, each sample was vortexed for 30 s and then centrifuged at 13,500 rpm for 10 min. 100 L of the supernatant was transferred to an EP tube, and 100 L Milli-Q water was added. The mixture was well mixed by vortexing and analyzed by LC-MS/MS.
(§14) 6) Testosterone and dextromethorphan were used as positive control samples under the same conditions to assess the stability and reliability of the system.
(§15) Parameters of the test samples, including their half-lives, intrinsic clearance rates in liver microsomes, and hepatic intrinsic clearance rates, were calculated based on the percentage of test sample remaining.
For orientation: Liver microsomes are vesicles of endoplasmic reticulum, rich in cytochrome P450 enzymes.
As a reminder, the CLint scaled is the rate of metabolic loss divided by the concentration. Read a high CLint scaled as rapid turnover. With `C[C@@]1(O)CC[C@H]2[C@H](CC[C@@H]3[C@@H]2CC[C@]2(C)[C@@H](C(=O)Cn4ncn(-c5ccc(F)cc5)c4=O)CC[C@@H]32)C1` [Compound 9], the CLint scaled at 1 µM turned out to be 38 mL/min/kg and the T1/2 worked out at 32.8 min.

The data set is the same for the next values; noted with them: Human liver microsomes 0.5 mg/mL, NADPH.
With `C[C@@]1(O)CC[C@H]2[C@H](CC[C@@H]3[C@@H]2CC[C@]2(C)[C@@H](C(=O)Cn4ncn(-c5ccc(F)cc5)c4=O)CC[C@@H]32)C1` [Compound 9], the “Remaining amount % at 60 min” value turned out to be 24.73%.

The same data set, now with this note: Human liver microsomes; read-out: CLint(mic).
`C[C@@]1(O)CC[C@H]2[C@H](CC[C@@H]3[C@@H]2CC[C@]2(C)[C@@H](C(=O)Cn4ncn(-c5ccc(F)cc5)c4=O)CC[C@@H]32)C1` [Compound 9]: the microsomal CLint at 1 µM amounted to 42 µL/min/mg.

The target of a further data set is T2, α4β3δ GABA receptors (α4β3δ-HEK-FlpIn-TRex stable cell strain) (Homo sapiens, UniProt P28472+P48169).
T2 construct: expressed in transfected cells
T2 sequence (P48169 36-554): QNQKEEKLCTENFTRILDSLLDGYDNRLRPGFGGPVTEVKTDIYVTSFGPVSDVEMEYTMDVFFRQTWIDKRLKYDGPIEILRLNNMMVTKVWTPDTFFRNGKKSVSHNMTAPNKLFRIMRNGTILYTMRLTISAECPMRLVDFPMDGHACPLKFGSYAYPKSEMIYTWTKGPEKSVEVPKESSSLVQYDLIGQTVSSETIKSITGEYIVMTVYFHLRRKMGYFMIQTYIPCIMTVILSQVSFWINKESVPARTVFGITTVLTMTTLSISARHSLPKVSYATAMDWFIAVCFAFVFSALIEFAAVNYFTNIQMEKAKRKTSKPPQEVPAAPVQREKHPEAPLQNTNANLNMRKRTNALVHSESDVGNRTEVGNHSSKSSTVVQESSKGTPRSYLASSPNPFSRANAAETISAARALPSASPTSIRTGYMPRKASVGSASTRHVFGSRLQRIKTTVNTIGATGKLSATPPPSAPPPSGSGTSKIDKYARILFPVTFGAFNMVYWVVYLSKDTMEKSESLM
T2 sequence (P28472 26-473): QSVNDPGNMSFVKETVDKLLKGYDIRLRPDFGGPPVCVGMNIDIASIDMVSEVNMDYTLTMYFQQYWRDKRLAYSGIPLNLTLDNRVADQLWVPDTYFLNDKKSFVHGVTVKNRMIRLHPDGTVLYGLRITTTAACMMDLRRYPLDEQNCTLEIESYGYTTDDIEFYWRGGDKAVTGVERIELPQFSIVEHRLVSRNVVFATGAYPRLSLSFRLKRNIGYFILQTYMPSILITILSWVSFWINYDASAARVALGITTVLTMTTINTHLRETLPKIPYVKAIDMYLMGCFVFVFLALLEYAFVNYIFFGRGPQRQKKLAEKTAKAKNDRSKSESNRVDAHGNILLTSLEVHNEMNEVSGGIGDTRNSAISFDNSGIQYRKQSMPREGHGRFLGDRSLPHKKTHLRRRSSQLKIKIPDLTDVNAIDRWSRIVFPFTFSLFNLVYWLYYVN
T2 sequence (O14764 25-452 partner): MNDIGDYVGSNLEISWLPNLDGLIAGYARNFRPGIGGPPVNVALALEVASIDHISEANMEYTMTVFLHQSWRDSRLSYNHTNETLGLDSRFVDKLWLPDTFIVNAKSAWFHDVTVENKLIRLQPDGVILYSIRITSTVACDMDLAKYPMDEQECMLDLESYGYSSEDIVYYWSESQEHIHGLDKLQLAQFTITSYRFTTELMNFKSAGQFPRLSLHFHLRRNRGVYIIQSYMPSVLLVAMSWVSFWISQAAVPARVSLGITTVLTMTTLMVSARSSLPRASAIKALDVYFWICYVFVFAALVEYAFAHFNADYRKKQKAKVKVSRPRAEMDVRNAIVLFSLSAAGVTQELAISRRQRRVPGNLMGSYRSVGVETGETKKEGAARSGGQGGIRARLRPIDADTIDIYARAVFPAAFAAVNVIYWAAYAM
The data set can be described thus: Whole-cell patch clamp, extrasynaptic functional activity (positive allosteric regulation of GABA-induced current). The data set is classed as cell-based. Particulars: patch clamp -60 mV, GABA at EC10-20, α4β3δ-HEK-FlpIn-TRex cells. On the procedure:
as §1, §2, §3, §4
A general note: Patch clamp records ionic current or voltage across a cell membrane.
Take `C[C@@]1(O)CC[C@H]2[C@H](CC[C@@H]3[C@@H]2CC[C@]2(C)[C@@H](C(=O)Cn4ncn(-c5ccc(F)cc5)c4=O)CC[C@@H]32)C1` [Compound 9]: the 50% effective concentration (EC50) was 148 nM and the Emax turned out to be 428%.

`C[C@@]1(O)CC[C@H]2[C@H](CC[C@@H]3[C@@H]2CC[C@]2(C)[C@@H](C(=O)Cn4c(=O)n(-c5ccccc5)c5ccccc54)CC[C@@H]32)C1` [Compound 13] returned an Emax of 470%.

For `C[C@@]1(O)CC[C@H]2[C@H](CC[C@@H]3[C@@H]2CC[C@]2(C)[C@@H](C(=O)Cn4cnn(-c5cc(F)ccn5)c4=O)CC[C@@H]32)C1` [Compound 35], the response was half-maximal at 68 nM (EC50) and the Emax turned out to be 720%.

As to `C[C@@]1(O)CC[C@H]2[C@H](CC[C@@H]3[C@@H]2CC[C@]2(C)[C@@H](C(=O)Cn4cnn(-c5ccnc(C(F)F)c5)c4=O)CC[C@@H]32)C1` [Compound 37], the Emax worked out at 432%.

For the molecule `Cc1cc(-n2ncn(CC(=O)[C@H]3CC[C@H]4[C@@H]5CC[C@@H]6C[C@](C)(O)CC[C@@H]6[C@H]5CC[C@]34C)c2=O)cc(C)n1` [Compound 40], the Emax is 563%.

Consider `C[C@@]1(O)CC[C@@]2(C)[C@@H](CC[C@@H]3[C@@H]2CC[C@]2(C)[C@@H](C(=O)Cn4cnn(-c5ccnc(F)c5)c4=O)CC[C@@H]32)C1` [Compound 42], for which a half-maximal effect (EC50) was put at 143 nM and the maximal effect (Emax) was 507%.

System in a further data set: not listed separately
The data set can be described thus: In vitro liver microsomal stability assay, rat. It is filed as in vitro ADME. Particulars: Rat liver microsomes. On the procedure:
as §5, §6, §7, §8, §9, §10, §11, §12, §13, §14, §15
`C[C@@]1(O)CC[C@H]2[C@H](CC[C@@H]3[C@@H]2CC[C@]2(C)[C@@H](C(=O)Cn4ncn(-c5ccc(F)cc5)c4=O)CC[C@@H]32)C1` [Compound 9] had an intrinsic clearance (CLint scaled) at 1 µM of 239 mL/min/kg and a T1/2 of 10.3 min.

The data set is the same for the next values; noted with them: Rat liver microsomes 0.5 mg/mL, NADPH.
In the case of `C[C@@]1(O)CC[C@H]2[C@H](CC[C@@H]3[C@@H]2CC[C@]2(C)[C@@H](C(=O)Cn4ncn(-c5ccc(F)cc5)c4=O)CC[C@@H]32)C1` [Compound 9], the “Remaining amount % at 60 min” value amounted to 4.19%.

Still in this data set, the particulars now being: Rat liver microsomes; read-out: CLint(mic).
Turning to `C[C@@]1(O)CC[C@H]2[C@H](CC[C@@H]3[C@@H]2CC[C@]2(C)[C@@H](C(=O)Cn4ncn(-c5ccc(F)cc5)c4=O)CC[C@@H]32)C1` [Compound 9], the microsomal CLint at 1 µM amounted to 133 µL/min/mg.
